Experimental data from patent publication US6407311B1, “Methods for production of hybrid wheat” (Yeda Research & Development Co., Ltd., priority 1997, dated 2002).

Legend:
[1] = system: line of Ae. searsii carrying the chlorotoluron resistance allele Su-S^s1; assay: Spraying chlorotoluron on the Ae. searsii line carrying Su-S^s1; assay type: in vivo, Aegilops searsii; conditions: sprayed at double the rate recommended at commercial fields
From the text: Different cultivars of common wheat show different reaction to the herbicide chlorotoluron and to other phenyl derivatives of urea; several cultivars carrying the dominant allele Su-B1 (e.g., Cappelle Desprez) are resistant while others carrying the recessive allele su-B1 (e.g., Chinese Spring) are susceptible (Snape et al, 1991). The gene is located on the long arm of chromosome 6B (6BL) about 0.5 cM from the centromere. […] Since chromosome 6S^sL of Ae. searsii pairs almost regularly with 6S^lL of Ae. longissima, it is possible to transfer the resistance allele to the 6S^lL arm of the engineered chromosome EC-H (FIGS. 8a,b), thus producing the engineered chromosome of the EC-HR type. […] The presence of the chlorotoluron resistance allele on the engineered chromosome facilitates the selective killing, in each generation, of the male-sterile plants that lack the engineered chromosome while unaffecting the male-fertile maintainer plants (with the engineered chromosome) in the progeny of the selfed maintainer. This will assure, that in each generation, only the male-fertile offspring of the selfed maintainer, will grow. […]

[2] = system: lines of diploid Aegilops species; assay: Reaction of lines of diploid Aegilops species to chlorotoluron; assay type: in vivo; conditions: most lines
From the text: Different cultivars of common wheat show different reaction to the herbicide chlorotoluron and to other phenyl derivatives of urea; several cultivars carrying the dominant allele Su-B1 (e.g., Cappelle Desprez) are resistant while others carrying the recessive allele su-B1 (e.g., Chinese Spring) are susceptible (Snape et al, 1991). The gene is located on the long arm of chromosome 6B (6BL) about 0.5 cM from the centromere. […] Since chromosome 6S^sL of Ae. searsii pairs almost regularly with 6S^lL of Ae. longissima, it is possible to transfer the resistance allele to the 6S^lL arm of the engineered chromosome EC-H (FIGS. 8a,b), thus producing the engineered chromosome of the EC-HR type. […] The presence of the chlorotoluron resistance allele on the engineered chromosome facilitates the selective killing, in each generation, of the male-sterile plants that lack the engineered chromosome while unaffecting the male-fertile maintainer plants (with the engineered chromosome) in the progeny of the selfed maintainer. This will assure, that in each generation, only the male-fertile offspring of the selfed maintainer, will grow.

[3] = system: cultivars carrying the dominant allele Su-B1 (e.g., Cappelle Desprez); conditions: Snape et al, 1991; cited from earlier work
[4] = system: plants with 2n=43 carrying the EC-HR1; assay: Chlorotoluron on selfed progeny of EC-HR1 monosomic addition plants, 2n=43; assay type: in vivo, common wheat
From the text: (§1) To construct the engineered chromosome EC-HR1, the dominant chlorotoluron resistance allele Su-S^s1 is transferred from chromosome arm 6S^sL of a selected line of Ae. searsii into the 6S^lL arm of the engineered chromosome EC-H1. This is achieved by crossing a […] female parent derived from the male-fertile maintainer line in the common wheat cultivar Chinese Spring. This female parent is homozygous for the ms-B1, su-B1 and Ki-B1 alleles and has, as a monosomic addition, the engineered chromosome EC-H1 (4S^sS/6S^lL) carrying on its short arm the Ms-S^s1 and rht-S^s1 alleles and on its long arm the su-S1ki-S^l1-a alleles, with a line of the diploid species Ae. searsii carrying the chlorotoluron resistance allele on the long arm of chromosome 6S^s, i.e., on 6S^sL, as well as the Ms-S^s1 and rht-S^s1 alleles on 4S^sS. About 20% of the F1 progeny have the engineered chromosome EC-H1 and therefore contain 2n=29 chromosomes and can be distinguished from the other F1 plants having 2n=28. […] Pollinating the 2n=29 F1 plants once or twice with Chinese Spring, homozygous for su-B1 yields plants with 2n=43 (21″+1′) containing the desired engineered chromosome EC-HR1 as a monosomic addition.

[5] = system: plants with 2n=42 (lacking the EC-HR1); assay: Chlorotoluron on selfed progeny of EC-HR1 monosomic addition plants, 2n=42; assay type: in vivo, common wheat
From the text: as §1

[6] = system: cultivars carrying the recessive allele su-B1 (e.g., Chinese Spring); conditions: Snape et al, 1991; cited from earlier work
[7] = system: plants of common wheat homozygous for the herbicide susceptibility allele su-B1; assay: Spraying chlorotoluron on common wheat homozygous for su-B1; assay type: in vivo; conditions: sprayed at double the rate recommended at commercial fields
From the text: To test the effect of chlorotoluron on the various genotypes we sprayed this herbicide at a rate which is double of the recommended at commercial fields on plants of common wheat homozygous for the herbicide susceptibility allele su-B1 and the line of Ae. searsii carrying the chlorotoluron resistance allele Su-S^s1. All plants carrying the recessive su-B1 allele died within 10-14 days from spraying while those carrying the dominant Su-S^s1 allele survived.

For `Cc1ccc(NC(=O)N(C)C)cc1Cl` [chlorotoluron, 3-(3-chloro-p-tolyl)-1,1-dimethylurea], the “outcome of plants after spraying” value [1] is given as “survived”, the “reaction to the herbicide” value [2] is given as “susceptible” and the “reaction to the herbicide” value [3] is given as “resistant”. For the same molecule, the “effect on plants carrying EC-HR1” value [4] was “unaffected”, the “effect on plants lacking the resistance allele” value [5] was “kills all plants” and the “reaction to the herbicide” value [6] was “susceptible”. For the same molecule, the “outcome of plants after spraying” value [7] was “died” and the “time to death from spraying” value [7] was 10 to 14 days.
